Measurements reported in ChEMBL document CHEMBL1158640, “Synthesis, analgesic and anti-inflammatory activities of some novel pyrazolines derivatives” (Bioorg Med Chem Lett, 2010).
Active and inactive are the calls of the source. The rule behind the calls is not given here.

Experiments:
Rattus norvegicus [1] = experiment: Antiinflammatory activity in Wistar rat assessed as reduction of carrageenan-induced increase in paw volume at 30 mg/kg, po after 3 hrs; assay type: functional
Mus musculus [2] = experiment: Toxicity in Swiss albino mouse up to 1000 mg/kg, po; assay type: organism-based; parameters: dose 1000 mg/kg, route oral; conditions: in vivo
Mus musculus [3] = experiment: Analgesic activity against acetic acid-induced writhing in Swiss albino mouse at 30 mg/kg, po; assay type: functional, organism-based; parameters: dose 30 mg/kg
Rattus norvegicus [4] = experiment: Toxicity in Wistar rat up to 1000 mg/kg, po; assay type: organism-based; parameters: dose 1000 mg/kg, route oral; conditions: in vivo
Rattus norvegicus [5] = experiment: Antiinflammatory activity in Wistar rat assessed as reduction of carrageenan-induced increase in paw volume at 30 mg/kg, po after 2 hrs; assay type: functional
Rattus norvegicus [6] = experiment: Antiinflammatory activity in Wistar rat assessed as reduction of carrageenan-induced increase in paw volume at 30 mg/kg, po after 4 hrs; assay type: functional
Rattus norvegicus [7] = experiment: Antiinflammatory activity in Wistar rat assessed as reduction of carrageenan-induced increase in paw volume at 30 mg/kg, po after 24 hrs; assay type: functional
Rattus norvegicus [8] = experiment: Antiinflammatory activity in Wistar rat assessed as reduction of carrageenan-induced increase in paw volume at 1000 mg/kg, po; assay type: functional, organism-based; parameters: dose 1000 mg/kg

For `Oc1ccc(Cl)cc1C1=NN(C(=S)Nc2ccccc2)C(c2ccc(N3CCOCC3)cc2)C1` (stereo unspecified), the Activity (Rattus norvegicus [1]) was 0.72 mL, the Activity (Mus musculus [2]) was “Non-toxic” and the Activity (Mus musculus [3]) was “Active”. The Activity (Rattus norvegicus [4]) was “Non-toxic”, the Activity (Rattus norvegicus [5]) was 0.64 mL and the Activity (Rattus norvegicus [6]) was 0.72 mL. The Activity (Rattus norvegicus [7]) was 0.86 mL and the Activity (Rattus norvegicus [8]) was “Active”.

With `Oc1ccc(Cl)cc1C1=NNC(c2ccc(N3CCOCC3)cc2)C1` (stereo unspecified) the Activity (Rattus norvegicus [1]) was 1.6 mL, the Activity (Mus musculus [2]) was “Non-toxic” and the Activity (Rattus norvegicus [4]) was “Non-toxic”. For the same molecule, the Activity (Rattus norvegicus [5]) was 1.52 mL, the Activity (Rattus norvegicus [6]) was 1.61 mL and the Activity (Rattus norvegicus [7]) was 1.92 mL. The Activity (Rattus norvegicus [8]) was “Active”.

`Oc1ccccc1C1=NN(C(=S)Nc2ccccc2)C(c2ccc(N3CCOCC3)cc2)C1` (stereo unspecified) was tested, and the Activity (Rattus norvegicus [1]) was 0.62 mL, the Activity (Mus musculus [2]) was “Non-toxic” and the Activity (Rattus norvegicus [4]) was “Non-toxic”. The Activity (Rattus norvegicus [5]) was 0.82 mL, the Activity (Rattus norvegicus [6]) was 0.84 mL and the Activity (Rattus norvegicus [7]) was 0.94 mL. The Activity (Rattus norvegicus [8]) was “Active”.

With `Oc1ccc(Br)cc1C1=NN(C(=S)Nc2ccccc2)C(c2ccc(N3CCOCC3)cc2)C1` (stereo unspecified) the Activity (Rattus norvegicus [1]) was 0.69 mL, the Activity (Mus musculus [2]) was “Non-toxic” and the Activity (Mus musculus [3]) was “Active”. The Activity (Rattus norvegicus [4]) was “Non-toxic”, the Activity (Rattus norvegicus [5]) was 0.87 mL and the Activity (Rattus norvegicus [6]) was 0.91 mL. The Activity (Rattus norvegicus [7]) was 0.92 mL and the Activity (Rattus norvegicus [8]) was “Active”.

With `Oc1c(Cl)cc(Cl)cc1C1=NN(C(=S)Nc2ccccc2)C(c2ccc(N3CCOCC3)cc2)C1` (stereo unspecified) the Activity (Rattus norvegicus [1]) was 1.47 mL, the Activity (Mus musculus [2]) was “Non-toxic” and the Activity (Rattus norvegicus [4]) was “Non-toxic”. It also gave an Activity (Rattus norvegicus [5]) of 1.49 mL, an Activity (Rattus norvegicus [6]) of 1.52 mL and an Activity (Rattus norvegicus [7]) of 1.92 mL. The Activity (Rattus norvegicus [8]) was “Active”.

For `Cc1ccc(O)c(C2=NNC(c3ccc(N4CCOCC4)cc3)C2)c1` (stereo unspecified), the Activity (Rattus norvegicus [1]) was 0.85 mL, the Activity (Mus musculus [2]) was “Non-toxic” and the Activity (Mus musculus [3]) was “Active”. For the same molecule, the Activity (Rattus norvegicus [4]) was “Non-toxic”, the Activity (Rattus norvegicus [5]) was 0.87 mL and the Activity (Rattus norvegicus [6]) was 0.96 mL. For the same molecule, the Activity (Rattus norvegicus [7]) was 0.79 mL and the Activity (Rattus norvegicus [8]) was “Active”.

`O=C([O-])Cc1ccccc1Nc1c(Cl)cccc1Cl.[Na+]` [DICLOFENAC SODIUM] showed an Activity (Rattus norvegicus [1]) of 0.18 mL, an Activity (Rattus norvegicus [5]) of 0.18 mL and an Activity (Rattus norvegicus [6]) of 0.18 mL. The Activity (Rattus norvegicus [7]) was 0.03 mL.

In the case of `Cc1cc(O)c(C2=NN(C(=S)Nc3ccccc3)C(c3ccc(N4CCOCC4)cc3)C2)cc1Cl` (stereo unspecified), the Activity (Rattus norvegicus [1]) is reported as 1.53 mL, the Activity (Mus musculus [2]) is reported as “Non-toxic” and the Activity (Rattus norvegicus [4]) is reported as “Non-toxic”. It also gave an Activity (Rattus norvegicus [5]) of 1.42 mL, an Activity (Rattus norvegicus [6]) of 1.57 mL and an Activity (Rattus norvegicus [7]) of 1.92 mL. The Activity (Rattus norvegicus [8]) was “Active”.

`Oc1c(Cl)cc(Cl)cc1C1=NNC(c2ccc(N3CCOCC3)cc2)C1` (stereo unspecified) was tested, and the Activity (Rattus norvegicus [1]) was 1.46 mL, the Activity (Mus musculus [2]) was “Non-toxic” and the Activity (Rattus norvegicus [4]) was “Non-toxic”. For the same molecule, the Activity (Rattus norvegicus [5]) was 1.41 mL, the Activity (Rattus norvegicus [6]) was 1.75 mL and the Activity (Rattus norvegicus [7]) was 1.72 mL. For the same molecule, the Activity (Rattus norvegicus [8]) was “Active”.

`Cc1cc(C)c(O)c(C2=NN(C(=S)Nc3ccccc3)C(c3ccc(N4CCOCC4)cc3)C2)c1` (stereo unspecified) was tested, and the Activity (Rattus norvegicus [1]) was 1.81 mL, the Activity (Mus musculus [2]) was “Non-toxic” and the Activity (Rattus norvegicus [4]) was “Non-toxic”. It also gave an Activity (Rattus norvegicus [5]) of 1.41 mL, an Activity (Rattus norvegicus [6]) of 1.63 mL and an Activity (Rattus norvegicus [7]) of 1.73 mL. For the same molecule, the Activity (Rattus norvegicus [8]) was “Active”.

For `Cc1cc(O)c(C2=NNC(c3ccc(N4CCOCC4)cc3)C2)cc1Cl` (stereo unspecified), the Activity (Rattus norvegicus [1]) was 1.62 mL, the Activity (Mus musculus [2]) was “Non-toxic” and the Activity (Rattus norvegicus [4]) was “Non-toxic”. The Activity (Rattus norvegicus [5]) was 1.56 mL, the Activity (Rattus norvegicus [6]) was 1.63 mL and the Activity (Rattus norvegicus [7]) was 1.93 mL. The Activity (Rattus norvegicus [8]) was “Active”.

In the case of `Cc1cc(C)c(O)c(C2=NNC(c3ccc(N4CCOCC4)cc3)C2)c1` (stereo unspecified), the Activity (Rattus norvegicus [1]) is reported as 1.57 mL, the Activity (Mus musculus [2]) is reported as “Non-toxic” and the Activity (Rattus norvegicus [4]) is reported as “Non-toxic”. For the same molecule, the Activity (Rattus norvegicus [5]) was 1.38 mL, the Activity (Rattus norvegicus [6]) was 1.53 mL and the Activity (Rattus norvegicus [7]) was 1.92 mL. The Activity (Rattus norvegicus [8]) was “Active”.

In the case of `Oc1ccccc1C1=NNC(c2ccc(N3CCOCC3)cc2)C1` (stereo unspecified), the Activity (Rattus norvegicus [1]) is reported as 0.59 mL, the Activity (Mus musculus [2]) is reported as “Non-toxic” and the Activity (Rattus norvegicus [4]) is reported as “Non-toxic”. The Activity (Rattus norvegicus [5]) was 0.73 mL, the Activity (Rattus norvegicus [6]) was 0.69 mL and the Activity (Rattus norvegicus [7]) was 0.68 mL. The Activity (Rattus norvegicus [8]) was “Active”.

For `Cc1ccc(O)c(C2=NN(C(=S)Nc3ccccc3)C(c3ccc(N4CCOCC4)cc3)C2)c1` (stereo unspecified), the Activity (Rattus norvegicus [1]) was 1.6 mL, the Activity (Mus musculus [2]) was “Non-toxic” and the Activity (Rattus norvegicus [4]) was “Non-toxic”. For the same molecule, the Activity (Rattus norvegicus [5]) was 1.52 mL, the Activity (Rattus norvegicus [6]) was 1.43 mL and the Activity (Rattus norvegicus [7]) was 1.92 mL. For the same molecule, the Activity (Rattus norvegicus [8]) was “Active”.

With `Oc1ccc(Br)cc1C1=NNC(c2ccc(N3CCOCC3)cc2)C1` (stereo unspecified) the Activity (Rattus norvegicus [1]) was 0.52 mL, the Activity (Mus musculus [2]) was “Non-toxic” and the Activity (Mus musculus [3]) was “Active”. For the same molecule, the Activity (Rattus norvegicus [4]) was “Non-toxic”, the Activity (Rattus norvegicus [5]) was 0.86 mL and the Activity (Rattus norvegicus [6]) was 0.64 mL. The Activity (Rattus norvegicus [7]) was 0.98 mL and the Activity (Rattus norvegicus [8]) was “Active”.
